Measurements: patent US9023857B2, “Substituted 6-(2-aminobenzylamino)purine derivatives, their use as medicaments and preparations containing these compounds” (Univerzita Palackeho V Olomouci, priority 2009, dated 2015)

Key:
[1] = system: p53-responsive reporter pRGCΔfoslacZ in human melanoma cell line Arn8; assay: p53-dependent transcriptional activity, β-galactosidase reporter in Arn8 cells; details: concentration inducing maximum of β-galactosidase activity (p53-responsive reporter)
[2] = system: human T-lymphoblastoid leukaemic cell line CEM; assay: In vitro cytotoxic activity (Calcein AM, 72 hours), CEM; details: read-out: Cytotoxicity IC50 CEM
[3] = system: human osteogenic sarcoma HOS; assay: In vitro cytotoxic activity (Calcein AM, 72 hours), HOS; details: read-out: Cytotoxicity IC50 HOS
CDK9/cyclin T = CDK9/cyclin T (Homo sapiens, UniProt P50750); assay: CDK inhibition assay, CDK9/cyclin T
CDK2/cyclin E = CDK2/cyclin E (Homo sapiens, UniProt P24941); assay: CDK inhibition assay, CDK2/cyclin E
CDK1/cyclin B = CDK1/cyclin B (Homo sapiens, UniProt P06493); assay: CDK inhibition assay, CDK1/cyclin B
[4] = system: human malignant melanoma G 361; assay: In vitro cytotoxic activity (Calcein AM, 72 hours), G 361; details: G-361, 72 h, read-out: Cytotoxicity IC50 G361
breast carcinoma MCF7 = assay: In vitro cytotoxic activity (Calcein AM, 72 hours), MCF7; details: Homo sapiens, MCF7, 72 h, read-out: Cytotoxicity IC50 MCF7
[5] = In vitro cytotoxic activity (Calcein AM, 72 hours), BJ; details: human, BJ normal fibroblasts
[6] = system: cervical carcinoma cells HELA; assay: In vitro cytotoxic activity (Calcein AM, 72 hours), HELA; details: Homo sapiens, read-out: Cytotoxicity IC50 HeLa
[7] = system: human erythroleukaemia K562; assay: In vitro cytotoxic activity (Calcein AM, 72 hours), K562; details: K562, 72 h, read-out: Cytotoxicity IC50 K-562
[8] = system: promyelocytic leukemia HL 60; assay: In vitro cytotoxic activity (Calcein AM, 72 hours), HL 60; details: Homo sapiens, HL-60, 72 h, read-out: Cytotoxicity IC50 HL60

CDK1/cyclin B, sequence (P06493 whole entry, species assumed): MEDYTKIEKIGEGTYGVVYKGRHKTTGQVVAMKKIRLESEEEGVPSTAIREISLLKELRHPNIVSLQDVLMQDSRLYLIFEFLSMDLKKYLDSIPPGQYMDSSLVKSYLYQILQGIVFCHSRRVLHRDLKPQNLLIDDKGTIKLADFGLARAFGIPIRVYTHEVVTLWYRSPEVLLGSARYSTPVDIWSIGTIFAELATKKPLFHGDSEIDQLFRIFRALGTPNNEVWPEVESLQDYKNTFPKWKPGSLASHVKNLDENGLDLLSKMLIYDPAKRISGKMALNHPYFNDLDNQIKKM
CDK1/cyclin B, sequence (P14635 whole entry partner, species assumed): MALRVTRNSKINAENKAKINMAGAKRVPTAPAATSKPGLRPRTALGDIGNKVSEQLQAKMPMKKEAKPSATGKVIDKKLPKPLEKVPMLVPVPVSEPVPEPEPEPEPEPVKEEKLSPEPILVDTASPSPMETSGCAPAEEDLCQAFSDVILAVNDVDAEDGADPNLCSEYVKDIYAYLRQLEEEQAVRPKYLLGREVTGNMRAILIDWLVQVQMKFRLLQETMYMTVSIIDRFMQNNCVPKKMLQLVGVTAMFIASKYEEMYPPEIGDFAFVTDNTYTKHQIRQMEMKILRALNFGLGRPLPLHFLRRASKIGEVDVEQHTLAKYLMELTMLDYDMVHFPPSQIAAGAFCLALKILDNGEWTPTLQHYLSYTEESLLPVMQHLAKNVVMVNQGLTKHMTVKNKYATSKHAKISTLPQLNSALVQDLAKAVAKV
CDK9/cyclin T, sequence (P50750 whole entry, species assumed): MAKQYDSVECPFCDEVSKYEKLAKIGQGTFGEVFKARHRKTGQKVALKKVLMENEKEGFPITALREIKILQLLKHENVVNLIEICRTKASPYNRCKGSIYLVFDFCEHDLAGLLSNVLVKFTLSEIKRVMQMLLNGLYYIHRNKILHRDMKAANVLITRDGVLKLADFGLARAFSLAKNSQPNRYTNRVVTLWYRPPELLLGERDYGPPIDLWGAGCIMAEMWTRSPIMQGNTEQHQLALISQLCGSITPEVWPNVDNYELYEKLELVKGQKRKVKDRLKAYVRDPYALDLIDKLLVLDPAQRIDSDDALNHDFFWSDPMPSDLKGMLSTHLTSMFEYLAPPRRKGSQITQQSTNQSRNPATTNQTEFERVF
CDK9/cyclin T, sequence (O60563 whole entry partner, species assumed): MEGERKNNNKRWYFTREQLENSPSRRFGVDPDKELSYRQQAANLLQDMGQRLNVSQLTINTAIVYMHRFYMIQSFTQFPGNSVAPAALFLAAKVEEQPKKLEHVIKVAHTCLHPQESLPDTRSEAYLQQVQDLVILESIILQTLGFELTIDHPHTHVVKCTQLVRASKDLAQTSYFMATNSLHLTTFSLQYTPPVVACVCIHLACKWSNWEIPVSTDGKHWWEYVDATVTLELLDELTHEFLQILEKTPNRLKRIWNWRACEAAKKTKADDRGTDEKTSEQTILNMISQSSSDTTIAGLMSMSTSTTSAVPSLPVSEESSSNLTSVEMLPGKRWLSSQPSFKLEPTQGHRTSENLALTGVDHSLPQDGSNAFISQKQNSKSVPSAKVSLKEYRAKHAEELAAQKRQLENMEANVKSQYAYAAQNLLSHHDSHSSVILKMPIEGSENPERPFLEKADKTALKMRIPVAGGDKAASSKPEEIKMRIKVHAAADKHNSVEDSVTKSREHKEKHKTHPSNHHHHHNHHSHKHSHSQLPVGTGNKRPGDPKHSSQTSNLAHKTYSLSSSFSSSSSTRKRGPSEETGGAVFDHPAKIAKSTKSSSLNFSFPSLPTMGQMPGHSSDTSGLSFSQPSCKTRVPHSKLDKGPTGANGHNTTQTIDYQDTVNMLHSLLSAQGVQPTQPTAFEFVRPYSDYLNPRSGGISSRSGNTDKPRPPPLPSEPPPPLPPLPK

SMILES	IC50 (CDK9/cyclin T) [µM]	IC50 (CDK2/cyclin E) [µM]	IC50 (CDK1/cyclin B) [µM]	Max. β-Gal. Activtity Conc. [1] [µM]	IC50 [2] [µM]	IC50 [3] [µM]	IC50 [4] [µM]	IC50 (breast carcinoma MCF7) [µM]	IC50 at 72 h [5] [µM]	IC50 [6] [µM]	IC50 [7] [µM]	IC50 [8] [µM]
CC(Nc1nc(NCc2ccccc2N)c2ncn(C)c2n1)C(C)(C)O (stereo not drawn) [Compound 9]	–	–	–	25	–	–	–	–	–	–	–	–
CCC(Nc1nc(NCc2ccccc2N)c2ncn(C)c2n1)C(C)(C)O (stereo not drawn) [Compound 13]	–	–	–	36	–	–	–	–	–	–	–	–
CCCCCCCNc1nc(NCc2ccccc2N)c2ncn(C(C)C)c2n1 [Compound 106, N-6-(2-aminobenzyl)-N-2-heptyl-9-isopropyl-9H-purin-2,6-diamine]	–	–	–	41	–	–	–	–	–	–	–	–
CC(C)n1cnc2c(NCc3ccccc3N)nc(NC(C)C(C)(C)O)nc21 (stereo not drawn) [Compound 109]	–	–	–	6	–	–	–	–	–	–	–	–
CC(CC(C)(C)O)Nc1nc(NCc2ccccc2N)c2ncn(C(C)C)c2n1 (stereo not drawn) [Compound 111]	–	–	–	32	–	–	–	–	–	–	–	–
CC(C)n1cnc2c(NCc3ccccc3N)nc(NCC(C)C(C)(C)O)nc21 (stereo not drawn) [Compound 112]	–	–	–	35	–	–	–	–	–	–	–	–
CCC(Nc1nc(NCc2ccccc2N)c2ncn(C(C)C)c2n1)C(C)(C)O (stereo not drawn) [Compound 113]	–	–	–	16	–	–	–	–	–	–	–	–
CC(C)n1cnc2c(NCc3cc(F)ccc3N)nc(NC3CCCCC3N)nc21 (stereo not drawn) [Compound 125]	0.008	0.1	0.4	–	5	–	–	6	–	–	10	–
CCCn1cnc2c(NCc3ccccc3N)nc(NC3CCC(N)CC3)nc21 (stereo not drawn) [Compound 184]	0.0009	0.2	0.4	6	11	32	19	8	> 167	17	24	35
Nc1ccccc1CNc1nc(NC2CCC(N)CC2)nc2c1ncn2C1CCCCC1 (stereo not drawn) [Compound 195]	0.05	0.3	0.6	22	11	22	14	12	> 167	13	38	24
Cn1cnc2c(NCc3ccccc3)nc(NC3CCCCC3N)nc21 (stereo not drawn) [Compound A1140]	2.5	2.7	2.3	–	31	97	83	52	> 167	50	86	69
CC[C@H](CO)Nc1nc(NCc2ccccc2)c2ncn(C(C)C)c2n1 [RO]	–	–	–	50	14	24	22	14	> 167	22	52	35

Further lines, with some results ahead:

IC50 (CDK9/cyclin T) [µM]	IC50 (CDK2/cyclin E) [µM]	IC50 (CDK1/cyclin B) [µM]	SMILES	Max. β-Gal. Activtity Conc. [1] [µM]	IC50 [2] [µM]	IC50 [3] [µM]	IC50 [4] [µM]	IC50 (breast carcinoma MCF7) [µM]	IC50 at 72 h [5] [µM]	IC50 [6] [µM]	IC50 [7] [µM]	IC50 [8] [µM]
0.05	0.8	1.1	Cn1cnc2c(NCc3ccccc3N)nc(NC3CCCCC3N)nc21 (stereo not drawn) [Compound 1]	34	15	22	22	13	> 167	18	46	31
0.01	0.4	0.7	Cn1cnc2c(NCc3ccccc3N)nc(NC3CCC(N)CC3)nc21 (stereo not drawn) [Compound 2]	37	9	20	14	10	> 167	12	36	22
0.001	0.01	0.04	CC(C)C(CO)Nc1nc(NCc2ccccc2N)c2ncn(C)c2n1 (stereo not drawn) [Compound 7]	25	0.9	0.8	1.2	1.5	> 167	1	5	2.4
0.0007	0.01	0.07	CCC(CO)Nc1nc(NCc2ccccc2N)c2ncn(CC)c2n1 (stereo not drawn) [Compound 62]	7	2.4	3.2	2.5	1.8	> 167	1.6	5.4	6.7
0.0009	0.01	0.03	CCn1cnc2c(NCc3ccccc3N)nc(NC(CO)C(C)C)nc21 (stereo not drawn) [Compound 64]	6	0.7	0.9	1	1.3	> 167	1.2	4.5	2.1
0.003	0.15	0.2	CC(C)n1cnc2c(NCc3ccccc3N)nc(N[C@H]3CC[C@H](O)CC3)nc21 [Compound 103]	14	14	63	33	10.1	> 167	18	29.8	36
0.006	0.03	0.09	CC(O)CNc1nc(NCc2ccccc2N)c2ncn(C(C)C)c2n1 (stereo not drawn) [Compound 104, 1-({6-[(2-aminobenzyl)amino]-9-isopropyl-9H-purin-2-yl}amino)propan-2-ol]	12	17	31	19	15.4	> 167	15	26	29
0.002	0.04	0.05	CC(C)C(CO)Nc1nc(NCc2ccccc2N)c2ncn(C(C)C)c2n1 (stereo not drawn) [Compound 107]	11	–	–	–	–	–	–	–	–
0.0004	0.008	0.02	CC(C)n1cnc2c(NCc3ccccc3N)nc(NCC(C)(C)O)nc21 [Compound 108]	3	0.5	1	1.9	1.2	> 167	1	3	2.2
0.002	0.01	0.08	CCC(CO)Nc1nc(NCc2cc(Cl)ccc2N)c2ncn(C(C)C)c2n1 (stereo not drawn) [Compound 118]	18	3.2	7.6	6	1.8	> 167	1.6	8.4	5.4
0.0006	0.07	0.1	Cc1cccc(CNc2nc(NC3CCC(N)CC3)nc3c2ncn3C(C)C)c1N (stereo not drawn) [Compound 138]	2	8.7	25	13	3.8	> 167	9.2	9.5	23
0.0007	0.1	0.2	CCCn1cnc2c(NCc3ccccc3N)nc(NC(CC)CO)nc21 (stereo not drawn) [Compound 187]	3	7.6	12	9	4.3	> 167	4.5	16	8.3
152	165	160	CCCCCCCNc1nc(NCc2ccccc2)c2ncn(C(C)C)c2n1 [Compound A218]	–	37	105	83	42.5	> 167	65	30.3	91
0.7	0.5	0.4	CC(C)n1cnc2c(NCc3ccccc3)nc(NC3CCC(N)CC3)nc21 (stereo not drawn) [Compound A2141]	–	33	28	27	33	> 167	28	47	47
0.5	0.4	0.6	CC(C)n1cnc2c(NCc3ccccc3)nc(NCC(C)(C)O)nc21 [Compound A2148]	–	51	–	66	65	–	–	47	–
